Test results from PMC8772704, “Quantification of Fosfomycin in Combination with Nine Antibiotics in Human Plasma and Cation-Adjusted Mueller-Hinton II Broth via LCMS” (Antibiotics, 2022).

How the values were obtained:
[1] = 32-day stability of stock solutions stored at −80 °C; type: physicochemical; conditions: stock solution stored at -80 °C; peak area Day 32 vs Day 1
Method: Stability of stock solutions
All stock solutions of antibiotics and their corresponding stable-isotope variants were measured prior to cold storage at -80 °C and tested at 32 days later.
Stability was determined by comparing the peak area of each drug between its Day 1 and Day 32 measurement. Acceptable criteria for stability was met if the […]

[2] = Long-term storage stability of antibiotics in combination with fosfomycin spiked in plasma/CAMHB (−30 °C, −80 °C); type: physicochemical; conditions: for Stability verdict (within ±15% of nominal): CAMHB samples stored at −30 °C, 4 weeks; for Mean accuracy (%), Table S15 / Mean accuracy (%), Table S17 / Mean accuracy (%), Table S16 / Mean accuracy (%), Table S18: CAMHB; for Mean accuracy (%), Table S15 / Mean accuracy (%), Table S17 / Mean accuracy (%), Table S16 / Mean accuracy (%), Table S18 / Mean accuracy (%), Table S11 / Mean accuracy (%), Table S13 / Mean accuracy (%), Table S12 / Mean accuracy (%), Table S14: combination with fosfomycin; for Mean accuracy (%), Table S15 / Mean accuracy (%), Table S11: 2 weeks at -30 °C; for Mean accuracy (%), Table S17 / Mean accuracy (%), Table S13: 2 weeks at -80 °C; for Mean accuracy (%), Table S16 / Mean accuracy (%), Table S12: 4 weeks at -30 °C; for Mean accuracy (%), Table S18 / Mean accuracy (%), Table S14: 4 weeks at -80 °C; for Mean accuracy (%), Table S11 / Mean accuracy (%), Table S13 / Mean accuracy (%), Table S12 / Mean accuracy (%), Table S14: plasma
Method: (§1) The stability of fosfomycin in combination with other antibiotics in plasma/CAMHB was evaluated under various operational conditions. Spiked plasma/CAMHB samples were evaluated at 7 h and 15 h in the autosampler at 4 °C. Long-term stability was evaluated up to 4 weeks of antibiotic-spiked plasma/CAMHB samples at LQC, MQC, and HQC concentrations stored at −30 °C and −80 °C.

[3] = Plasma concentrations in four patients on fosfomycin-based combination therapy (pilot clinical feasibility study, LCMS/MS)
Method: For 20 µL of plasma/CAMHB sample, 20 µL of water and 20 µL of stable-isotope as internal standard (IS) were added and vortexed. 180 µL of acetonitrile was added for protein precipitation and subsequently removed by centrifugation (12,700 rpm for 10 min at 25 °C). Finally, 15 µL of the supernatant was diluted with 225 µL formic acid in water (0.1% v/v), and 10 µL was injected for LCMS/MS analysis. For the calibration curve and QCs, 20 µL of the corresponding antibiotic standard working solution was added instead of water.
Samples were analyzed using a Nexera X2 LCMS 8060 system (Shimadzu, Kyoto, Japan). […] Electrospray ionization employing positive and negative ion mode with multiple reaction monitoring was used for analyte quantification (Table S1). Data were acquired and analyzed using Shimadzu LabSolutions (Version 5.97).
The assay method described in this paper has been applied to a pilot clinical feasibility study to evaluate the proportion of patients with sub-optimal β-lactam levels and the need for dose adjustments in infected patients with unpredictable pharmacokinetics. We described a case series of four patients where they received in vitro guided antibiotic combination therapy using a fosfomycin-based combination regimen to treat a carbapenem-resistant Gram-negative bacteria infection. These four patients were recruited into the BLAST-2 study as the combination regimen contains a β-lactam antibiotic. In this case series, two were undergoing intermittent hemodialysis, and two patients had normal renal function. In the two patients on hemodialysis, they were on a dosing regimen of 8 g of fosfomycin on dialysis days (3 g at least 4 h before dialysis session and 5 g after completion of dialysis). The remaining two patients received 8 g of fosfomycin given every 8 h as a prolonged infusion.
Blood samples (2–3 mL from an indwelling catheter) were collected four times over a dosing interval of the β-lactam dosing regimen and centrifuged (10 min at 3000 rpm) (Eppendorf 5425R). The resultant plasma was stored (within 15 min of collection) at −80 °C until assay.

[4] = Autosampler stability at 4 °C of extracted antibiotic-spiked plasma/CAMHB samples; conditions: for Mean accuracy (%), Table S8 / Mean accuracy (%), Table S10: CAMHB extracted samples; for Mean accuracy (%), Table S8 / Mean accuracy (%), Table S7: 7 h autosampler 4 °C; for Mean accuracy (%), Table S10 / Mean accuracy (%), Table S9: 15 h autosampler 4 °C; for Mean accuracy (%), Table S7 / Mean accuracy (%), Table S9: plasma extracted samples
Method: as §1

[5] = HQC: nominal mg/L CAZ 150, FEP 200, PIP 250, ATM 300, MEM 200, DOR 175, LVX 30, CEFT 250, TZB 87.5, TGC 20, AVI 30, FOF 1000
[6] = LQC: nominal 1 mg/L (levofloxacin, avibactam 0.5; fosfomycin 10)
[7] = MQC: nominal mg/L CAZ 75, FEP 100, PIP 150, ATM 150, MEM 100, DOR 87.5, LVX 15, CEFT 125, TZB 43.75, TGC 10, AVI 15, FOF 500

SMILES	32 Day Stability (%) [1] [%]	Mean accuracy (%), Table S15 ([2]; HQC (nominal as E15)) [%]	Mean accuracy (%), Table S15 ([2]; LQC (nominal as E13)) [%]	Mean accuracy (%), Table S15 ([2]; MQC (nominal as E14)) [%]	Mean accuracy (%), Table S17 ([2]; HQC (nominal as E15)) [%]	Mean accuracy (%), Table S17 ([2]; LQC (nominal as E13)) [%]	Mean accuracy (%), Table S17 ([2]; MQC (nominal as E14)) [%]	Mean accuracy (%), Table S16 ([2]; HQC (nominal as E15)) [%]	Mean accuracy (%), Table S16 ([2]; LQC (nominal as E13)) [%]	Mean accuracy (%), Table S16 ([2]; MQC (nominal as E14)) [%]	Mean accuracy (%), Table S18 ([2]; HQC (nominal as E15)) [%]	Mean accuracy (%), Table S18 ([2]; LQC (nominal as E13)) [%]	Mean accuracy (%), Table S18 ([2]; MQC (nominal as E14)) [%]	Mean accuracy (%), Table S11 ([2]; HQC (nominal as E15)) [%]	Mean accuracy (%), Table S11 ([2]; LQC (nominal as E13)) [%]	Mean accuracy (%), Table S11 ([2]; MQC (nominal as E14)) [%]	Mean accuracy (%), Table S13 ([2]; HQC (nominal as E15)) [%]	Mean accuracy (%), Table S13 ([2]; LQC (nominal as E13)) [%]	Mean accuracy (%), Table S13 ([2]; MQC (nominal as E14)) [%]	Mean accuracy (%), Table S12 ([2]; HQC (nominal as E15)) [%]	also measured
C[C@H]1[C@H](NC(=O)/C(=N\OC(C)(C)C(=O)O)c2csc(N)n2)C(=O)N1S(=O)(=O)O [Aztreonam, aztreonam]	99.75	102.6	102.2	92.5	100.2	101.3	95.1	92.5	66.5	91.8	98.4	109.7	96.0	97.3	103.1	90.2	97.2	87.6	94.5	96.1	Stability verdict (within ±15% of nominal) [2]: instability; Mean accuracy (%), Table S12 ([2]; LQC (nominal as E13)): 106.4%; Mean accuracy (%), Table S12 ([2]; MQC (nominal as E14)): 96.2%; Mean accuracy (%), Table S14 ([2]; HQC (nominal as E15)): 97.8%; Mean accuracy (%), Table S14 ([2]; LQC (nominal as E13)): 104.2%; Mean accuracy (%), Table S14 ([2]; MQC (nominal as E14)): 101.4%; Mean total plasma concentration (range) ([3]; Patient 002, intermittent hemodialysis, aztreonam 2 g every 12 h as a 2-h infusion): 8.8 to 86.2 mg/L; Mean accuracy (%), Table S8 ([4]; HQC (nominal as E15)): 99.3%; Mean accuracy (%), Table S8 ([4]; LQC (nominal as E13)): 109.7%; Mean accuracy (%), Table S8 ([4]; MQC (nominal as E14)): 107.5%; Mean accuracy (%), Table S10 ([4]; HQC (nominal as E15)): 104.4%; Mean accuracy (%), Table S10 ([4]; LQC (nominal as E13)): 103.7%; Mean accuracy (%), Table S10 ([4]; MQC (nominal as E14)): 104.7%; Mean accuracy (%), Table S7 [4, 5]: 109.1%; Mean accuracy (%), Table S7 [4, 6]: 100.8%; Mean accuracy (%), Table S7 [4, 7]: 101.2%; Mean accuracy (%), Table S9 ([4]; HQC (nominal as E15)): 107.9%; Mean accuracy (%), Table S9 ([4]; LQC (nominal as E13)): 105.8%; Mean accuracy (%), Table S9 ([4]; MQC (nominal as E14)): 102.4%
CO/N=C(\C(=O)N[C@@H]1C(=O)N2C(C(=O)[O-])=C(C[N+]3(C)CCCC3)CS[C@H]12)c1csc(N)n1 [Cefepime, cefepime]	108.51	95.3	100.9	102.0	94.8	108.8	98.7	93.2	91.1	94.9	93.2	107.6	102.8	89.3	98.6	87.2	89.0	102.0	94.3	89.6	Stability verdict (within ±15% of nominal) [2]: instability; Mean accuracy (%), Table S12 ([2]; LQC (nominal as E13)): 100.5%; Mean accuracy (%), Table S12 ([2]; MQC (nominal as E14)): 97.4%; Mean accuracy (%), Table S14 ([2]; HQC (nominal as E15)): 95.7%; Mean accuracy (%), Table S14 ([2]; LQC (nominal as E13)): 111.6%; Mean accuracy (%), Table S14 ([2]; MQC (nominal as E14)): 101.3%; Mean total plasma concentration (range) ([3]; Patient 003, intermittent hemodialysis, cefepime 1 g every 12 h as a 4-h infusion): 21.6 to 157.5 mg/L; Mean accuracy (%), Table S8 ([4]; HQC (nominal as E15)): 96.7%; Mean accuracy (%), Table S8 ([4]; LQC (nominal as E13)): 112.0%; Mean accuracy (%), Table S8 ([4]; MQC (nominal as E14)): 103.5%; Mean accuracy (%), Table S10 ([4]; HQC (nominal as E15)): 101.7%; Mean accuracy (%), Table S10 ([4]; LQC (nominal as E13)): 106.6%; Mean accuracy (%), Table S10 ([4]; MQC (nominal as E14)): 114.1%; Mean accuracy (%), Table S7 [4, 5]: 86.5%; Mean accuracy (%), Table S7 [4, 6]: 94.2%; Mean accuracy (%), Table S7 [4, 7]: 101.1%
C[C@@H]1O[C@@H]1P(=O)(O)O [Fosfomycin, fosfomycin]	95.80	98.5	103.1	94.7	96.3	110.6	99.5	94.6	103.6	95.4	101.8	104.7	98.2	98.4	102.2	92.1	95.6	101.8	94.6	94.0	Mean accuracy (%), Table S12 ([2]; LQC (nominal as E13)): 104.5%; Mean accuracy (%), Table S12 ([2]; MQC (nominal as E14)): 92.4%; Mean accuracy (%), Table S14 ([2]; HQC (nominal as E15)): 97.7%; Mean accuracy (%), Table S14 ([2]; LQC (nominal as E13)): 100.8%; Mean accuracy (%), Table S14 ([2]; MQC (nominal as E14)): 90.6%; Mean total plasma concentration (range) ([3]; four patients, samples measured in triplicates): 11.3 to 746.9 mg/L; Mean accuracy (%), Table S8 ([4]; HQC (nominal as E15)): 96.0%; Mean accuracy (%), Table S8 ([4]; LQC (nominal as E13)): 107.1%; Mean accuracy (%), Table S8 ([4]; MQC (nominal as E14)): 95.9%; Mean accuracy (%), Table S10 ([4]; HQC (nominal as E15)): 95.6%; Mean accuracy (%), Table S10 ([4]; LQC (nominal as E13)): 107.4%; Mean accuracy (%), Table S10 ([4]; MQC (nominal as E14)): 94.8%; Mean accuracy (%), Table S7 [4, 5]: 102.9%; Mean accuracy (%), Table S7 [4, 6]: 104.5%; Mean accuracy (%), Table S7 [4, 7]: 101.0%; Mean accuracy (%), Table S9 ([4]; HQC (nominal as E15)): 101.4%; Mean accuracy (%), Table S9 ([4]; LQC (nominal as E13)): 106.3%; Mean accuracy (%), Table S9 ([4]; MQC (nominal as E14)): 101.8%
